Data: patent US20070219180A1, “Muscle Relaxtion Accelerator and Therapeutic Agent for Muscular Tissue Diseases Such as Muscle Relaxation Failure” (priority 2004, published 2007)
“And” between values parts separate entries of the source, which are not always exact repeats. Identical values can stand only once.

Tests used:
[1] = tested on: myosin light chains; test: Experiment 5: amount of precipitate of myosin light chains; type: binding, swine; conditions: concentration of the compound 10^−3 mol
Method: In this experiment, the effects of the compound were studied on the amount of precipitate of myosin light chains, which is a component of the troponin test sample used in Experiment 4.
A sample buffer for polyacrylamide gel electrophoresis (SDS-PAGE) was added to each washed test precipitate, which was prepared in the manner described above, and mixed well to suspend the test precipitate. The resulting suspension was electrophoresed on a gel (PAG MINI “No. 1” 10/20) for about 1 hour at 40 mA. After electrophoresis, the suspension was silver-stained using “Daiichi” 2D-silver staining reagent (Daiichi Pure Chemicals Co., Ltd), and washed with distilled water and dried. The amount of precipitate in each silver-stained protein band obtained by gel electrophoresis was quantitated using a densitometer. […] The protein band from gel electrophoresis was stained using a reagent for mass spectrometry (silver staining reagent for mass spectrometry, Wako Pure Chemical Industries Ltd.), and a peptide fragment obtained from the protein that gave the band in gel electrophoresis was analyzed using high performance liquid chromatography (MAGIC2002, Michrom BioResources, Inc, USA).

[2] = tested on: white rabbits; test: Experiment 10: effect of the compound on cardiac rate and PQ interval on the electrocardiogram; type: in vivo, rabbit; conditions: for Cardiac rate: listed as the test compound; for Cardiac rate relative to before administration (100%) / PQ interval relative to before administration (100%): before administration (defined as 100%)
Method: In this experiment, the 1-hydrochloride of the compound, 4-[3-(4-benzylpiperidin-1-yl)propionyl]-7-methoxy-2,3,4,5-tetrahydro-1,4-benzothiazepine 1-hydrochloride (hereinafter called the compound) was used as the 1,4-benzothiazepine derivative or pharmaceutically acceptable salt thereof.
Five white rabbits (weight: 2.7-2.9 kg) were used in this experiment: a rabbit (weight 2.8 kg, Control 1) that was administered control solution, a rabbit (weight 2.7 kg, Test 10) that received the compound at 0.04 mg/kg/min, a rabbit (weight 2.7 kg, Test 11) that received the compound at 0.04 mg/kg/min, a rabbit (weight 2.9 kg, Test 12) that received the compound at 0.4 mg/kg/min, and a rabbit (weight 2.8 kg, Test 13) that received the compound at 0.4 mg/kg/min.
(§1) Each rabbit was anesthetized with a single intravenous injection of 20 mg/kg methohexital sodium under artificial respiration (Type AR1 Narishige Group) using endotracheal intubation. Subsequently, α-chloralose was injected into the ear veins at 90 mg/kg/20 min. A DMSO solution of the compound was prepared by dissolving 100 mg of the compound in 1 ml of dimethylsulfoxide (DMSO), and stored at 4° C.
In this experiment, injection catheters for administration of the compound and other drugs were inserted into the right external jugular veins of the rabbits, and microchip catheters (SPC-320, Millar) for blood pressure measurement were inserted via the right common arteries. A 2-lead electrocardiogram was examined, and blood pressure, cardiac rate, and electrocardiogram of the rabbits were monitored for 10 minutes. When the data stabilized, the electrocardiogram, systolic pressure and diastolic pressure of each rabbit were recorded on a personal computer via an A/D converter. The Control rabbit was administered 5% dextrose solution containing 0.1% DMSO as a control solution for 10 minutes at 0.1 ml/min. Test 10 and 11 rabbits were administered 5% dextrose containing the compound at 0.1 ml/min, and then the compound at an infusion rate of 0.04 mg/kg/min. Test 12 and 13 were administered 5% dextrose containing the compound at 0.1 ml/min, and then the compound at an infusion rate of 0.4 mg/kg/min.
Cardiac rate and PQ interval in the Control and Test rabbits were measured before administration of the test solution, and 5 and 10 minutes after administration. The PQ interval, which is the time interval between the beginning of the P-wave and the beginning of next Q wave, reflects the conduction velocity of electrical stimulation from the atrium to the ventricle. The cardiac rates before administration of the test solution were defined as 100%, and data for the cardiac rate after administration of the compound are shown in Table 10.

[3] = tested on: white rabbits; test: Experiment 9: effect of the compound on blood pressure in rabbits; type: in vivo, rabbit; conditions: for Mean blood pressure relative to before administration (100%): before administration (defined as 100%)
Method: Effects of the compound on blood pressure were examined in the same way as described in Experiment 2. In this experiment, Control and Tests 6-9 were anesthetized with a single intravenous injection of 20 mg/kg methohexital sodium under artificial respiration (Type AR1Narishige Group) using endotracheal intubation. The 1,4-benzothiazepine derivative or pharmaceutically acceptable salt thereof was used as the compound in this experiment.
Five white rabbits (weight: 2.7-2.9 kg) were used in this experiment: a rabbit (weight: 2.8 kg, Control) that received control solution, a rabbit (weight: 2.7 kg, Test 6) that received the compound at 0.04 mg/kg/min, a rabbit (weight: 2.7 kg, Test 7) that received the compound at 0.04 mg/kg/min, a rabbit (weight: 2.9 kg, Test 8) that received the compound at 0.4 mg/kg/min, and a rabbit (weight: 2.8 kg, Test 9) that received the compound at 0.4 mg/kg/min.
as §1
In this experiment, injection catheters for the compound for administration of drugs were inserted into the right external jugular veins of the rabbits and microchip catheters (SPC-320, Millar) for blood pressure measurement were inserted via the right common arteries. A 2-lead electrocardiogram was examined and blood pressure, cardiac rate, and electrocardiogram of the rabbits were monitored for 10 minutes. When the data stabilized, the electrocardiogram, systolic pressure and diastolic pressure of each rabbit were recorded on a personal computer via an A/D converter. The Control rabbit was administered 5% dextrose solution containing 0.1% DMSO as a control solution for 10 minutes at 0.1 ml/min. Test 6 and 7 rabbits were administered 5% dextrose containing the compound at 0.1 ml/min, and then the compound at an infusion rate of 0.04 mg/kg/min. Test 8 and 9 rabbits were administered 5% dextrose containing the compound at 0.1 ml/min, and then the compound at an infusion rate of 0.4 mg/kg/min.
Systolic pressure (mmHg) and diastolic pressure (mmHg) of the Control and Test rabbits were measured over 5 heart beats before administration of the solution, and 5 and 10 minutes after administration. The mean blood pressure (mmHg) was calculated from the systolic pressure (mmHg) and the diastolic pressure (mmHg), using the formula: mean blood pressure (mmHg)=[(systolic pressure+diastolic pressure)×½].

[4] = infusion rate 0.04 mg/kg/min, after 5 minutes
[5] = infusion rate 0.04 mg/kg/min, after 10 minutes
[6] = infusion rate 0.04 mg/kg/min, before administration
[7] = infusion rate 0.4 mg/kg/min, after 5 minutes
[8] = infusion rate 0.4 mg/kg/min, after 10 minutes
[9] = infusion rate 0.4 mg/kg/min, before administration

COc1ccc2c(c1)CN(C(=O)CCN1CCC(Cc3ccccc3)CC1)CCS2 [the compound, 4-[3-(4-benzylpiperidine-1-yl)propionyl]-7-methoxy-2,3,4,5-tetrahydro-1,4-benzothiazepine]
The amount of precipitate of myosin light chains (ratio to Test 1 = 1.0) ([1]; Test 3: Ca^2+ concentration 0 mol): 1.5
The amount of precipitate of myosin light chains (ratio to Test 1 = 1.0) ([1]; Test 4: Ca^2+ concentration 10^−5 mol): 1.4
Increase of PQ interval compared to before administration ([2]; 0.4 mg/kg/min, 10 minutes after administration, Test 12 and Test 13 rabbits): approximately 50%
PQ interval [2, 4]: 73 milliseconds and 66 milliseconds
Cardiac rate [2, 4]: 289 min⁻¹ and 283 min⁻¹
PQ interval [2, 5]: 74 milliseconds and 68 milliseconds
Cardiac rate [2, 5]: 286 min⁻¹ and 281 min⁻¹
PQ interval [2, 6]: 71 milliseconds and 64 milliseconds
Cardiac rate relative to before administration (100%) ([2]; infusion rate 0.04 mg/kg/min): (100%)
PQ interval relative to before administration (100%) ([2]; infusion rate 0.04 mg/kg/min): (100%)
Cardiac rate [2, 6]: 297 min⁻¹ and 286 min⁻¹
PQ interval [2, 7]: 92 milliseconds and 82 milliseconds
Cardiac rate [2, 7]: 350 min⁻¹ and 311 min⁻¹
PQ interval [2, 8]: 107 milliseconds and 103 milliseconds
Cardiac rate [2, 8]: 157 min⁻¹ and 98 min⁻¹
PQ interval [2, 9]: 69 milliseconds and 68 milliseconds
Cardiac rate relative to before administration (100%) ([2]; infusion rate 0.4 mg/kg/min): (100%)
PQ interval relative to before administration (100%) ([2]; infusion rate 0.4 mg/kg/min): (100%)
Cardiac rate [2, 9]: 372 min⁻¹ and 327 min⁻¹
Mean blood pressure [3, 4]: 79.5 mmHg and 82.0 mmHg
Mean blood pressure [3, 5]: 85.9 mmHg and 93.4 mmHg
Mean blood pressure [3, 6]: 85.6 mmHg and 87.7 mmHg
Mean blood pressure relative to before administration (100%) ([3]; infusion rate 0.04 mg/kg/min): (100%)
Mean blood pressure [3, 7]: 35.7 mmHg and 64.5 mmHg
Mean blood pressure [3, 8]: 41.7 mmHg and 46.3 mmHg
Mean blood pressure [3, 9]: 74.0 mmHg and 97.7 mmHg
Mean blood pressure relative to before administration (100%) ([3]; infusion rate 0.4 mg/kg/min): (100%)
